Values of other authors in US7678393B1, “Mixture composition and method useful for topical and internal application” (DB Laboratories LLC, priority 2006, dated 2010).

Legend:
cyclooxygenase-2 (COX-2) = details: LPS stimulation
F0F1-ATPase/ATP synthase = details: micromolar concentrations
iNOS = details: LPS stimulation
Interlukin-2 (IL-2) = Interlukin-2 (IL-2) (Homo sapiens, UniProt P60568); details: by direct binding of IL-2
Interlukin-2 (IL-2), sequence (P60568 21-153, species assumed): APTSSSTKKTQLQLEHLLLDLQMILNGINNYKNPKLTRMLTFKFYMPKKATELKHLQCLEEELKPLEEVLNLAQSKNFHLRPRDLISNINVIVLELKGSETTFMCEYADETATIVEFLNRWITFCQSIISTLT

Molecule | COX-2 activation by LPS (cyclooxygenase-2 (COX-2)) | inhibition of F0F1-ATPase/ATP synthase (F0F1-ATPase/ATP synthase) | iNOS activation by LPS (iNOS) | other results
O=C(O[C@@H]1Cc2c(O)cc(O)cc2O[C@@H]1c1cc(O)c(O)c(O)c1)c1cc(O)c(O)c(O)c1 [(−)epigallocatechin-3-gallate] | inhibited | showed inhibition at micromolar concentrations | inhibited | –
O=c1cc(-c2ccc(O)cc2)oc2cc(O)cc(O)c12 [apigenin] | inhibited | – | inhibited | –
O=c1c(O)c(-c2ccc(O)cc2)oc2cc(O)cc(O)c12 [kaempferol] | inhibited | showed inhibition at micromolar concentrations | inhibited | –
Oc1ccc(/C=C/c2cc(O)cc(O)c2)cc1 [resveratol] | – | showed inhibition at micromolar concentrations | – | –
O=C(OC[C@H]1O[C@@H](OC(=O)c2cc(O)c(O)c(OC(=O)c3cc(O)c(O)c(O)c3)c2)[C@H](OC(=O)c2cc(O)c(O)c(OC(=O)c3cc(O)c(O)c(O)c3)c2)[C@@H](OC(=O)c2cc(O)c(O)c(OC(=O)c3cc(O)c(O)c(O)c3)c2)[C@@H]1OC(=O)c1cc(O)c(O)c(OC(=O)c2cc(O)c(O)c(O)c2)c1)c1cc(O)c(O)c(OC(=O)c2cc(O)c(O)c(O)c2)c1 [tannic acid] | – | showed inhibition at micromolar concentrations | – | –
Lipoteichoic acid [LTA] | – | – | – | bound in plasma lipoproteins, efficiency (plasma lipoproteins; plasma): > 95%; distribution in HDL (plasma lipoproteins; plasma lipoproteins): 68%±10%; distribution in LDL (plasma lipoproteins; plasma lipoproteins): 28%±8%; distribution in VLDL (plasma lipoproteins; plasma lipoproteins): 4%±5%; Interlukin-2 function (Interlukin-2 (IL-2)): inhibits
